Converted amounts (≈) assume the structure as drawn.

The first assay deals with Plasmodium falciparum. The experiment in a line: Antimalarial activity against Plasmodium falciparum 3D7 assessed as reduction in malarial growth measured after 48 hrs by SYBR green dye based analysis. The class given is functional, organism-based. Conditions: 3D7, 48 h.
The IC50 is the concentration that inhibits the measured activity by half. For the molecule `Cc1cc(C)nc(NS(=O)(=O)c2ccc(-n3cc(COc4ccc5c(C)cc(=O)oc5c4)nn3)cc2)n1`, the IC50 is 20.5 µM. As for `C(=C\c1cn(-c2ccccc2)nc1-c1ccccc1)/c1nnc(-c2ccncc2)o1`, the IC50 turned out to be 0.5 µg/mL. As to `COc1ccc2cc3[n+](cc2c1OCc1cn(-c2ccc(S(=O)(=O)Nc4nc(C)cc(C)n4)cc2)nn1)CCc1cc2c(cc1-3)OCO2.[Cl-]`, the IC50 turned out to be 4 µg/mL. On the same count and under the same terms, the value for `Cc1cc(C)nc(NS(=O)(=O)c2ccc(-n3cc(COc4ccc5ccc(=O)oc5c4)nn3)cc2)n1` was over 79.4 µM; that for `Cc1cc(C)nc(NS(=O)(=O)c2ccc(-n3cc(COc4cc5oc(=O)cc(C)c5cc4Cl)nn3)cc2)n1` was 8.96 µM.

Consider `Cc1ccc(-c2nn(-c3ccccc3)cc2/C=C/c2nnc(-c3ccncc3)o2)cc1`, for which the 50% inhibitory concentration (IC50) stood at 0.4 µg/mL. The same measure, in the same setting: the value for `Cc1cc(C)nc(NS(=O)(=O)c2ccc(-n3cc(COc4ccc5c(-c6ccccc6)c(C)c(=O)oc5c4)nn3)cc2)n1` was over 67.3 µM.

The subject of the next assay is Plasmodium falciparum. The experiment in a line: Antimalarial activity against Plasmodium falciparum RKL9.
Settings: not given
The class given is functional, organism-based.
Consider `COc1cc(-c2cc(-c3cc(Cl)sc3Cl)nc(S)n2)ccc1OCc1ccccc1`, for which the midpoint of inhibition, the IC50, lay at 6.1 µg/mL (≈ 12.8 µM). Still for that read-out and setting: the value for `COc1cc(-c2cc(-c3cc(Cl)sc3Cl)nc(N)n2)ccc1OCc1ccccc1` was 2.9 µg/mL (≈ 6.33 µM); that for `C(=C\c1cn(-c2ccccc2)nc1-c1ccccc1)/c1nnc(-c2ccncc2)o1` was 0.8 µg/mL (≈ 2.04 µM); that for `Cc1ccc(-c2nn(-c3ccccc3)cc2/C=C/c2nnc(-c3ccncc3)o2)cc1` was 1.7 µg/mL (≈ 4.19 µM). Still for that read-out and setting: the value for `COc1cc(-c2cc(-c3ccco3)nc(N)n2)ccc1OCc1ccccc1` was 10.5 µg/mL (≈ 28.1 µM); that for `COc1ccc(-c2cc(-c3cc(Cl)sc3Cl)nc(S)n2)cc1OCc1ccccc1` was 2.2 µg/mL (≈ 4.63 µM); that for `COc1ccc(-c2cc(-c3cc(Cl)sc3Cl)nc(N)n2)cc1OCc1ccccc1` was 2.4 µg/mL (≈ 5.24 µM).

With `COc1ccc(-c2cc(-c3ccco3)nc(S)n2)cc1OCc1ccccc1`, the IC50 is 2 µg/mL (≈ 5.12 µM).

`COc1cc(-c2cc(-c3ccco3)nc(S)n2)ccc1OCc1ccccc1` registered an IC50 of 5.4 µg/mL (≈ 13.8 µM). On the same count and under the same terms, the value for `COc1ccc(-c2cc(-c3ccco3)nc(N)n2)cc1OCc1ccccc1` was 3.2 µg/mL (≈ 8.57 µM).

For the next assay, the system named is HepG2. The experiment in a line: Cytotoxicity against human HepG2 cells assessed as reduction in cell viability measured for 48 hrs by SRB assay. The class given is functional.
Settings: not given
For orientation: Sulforhodamine B stains cellular protein and so reports cell mass.
Broadly, the CC50 is the concentration that lowers cell viability or growth by half. As to `CCc1ccccc1N(C)C(=O)C(c1cccnc1)N(Cc1cccc(C(F)(F)F)c1)C1CC1` (configuration not stated), the CC50 is over 30 µM.

For `Cc1ccccc1N(C)C(=O)C(c1cccnc1)N(Cc1cccc(SC(F)(F)F)c1)C1CC1` (configuration not stated), the CC50 is over 30 µM. With `Cc1ccccc1N(C)C(=O)C(c1cccnc1)N(Cc1cccc(OC(F)(F)F)c1)C1CC1` (configuration not stated), the CC50 is over 30 µM. `CCCN(C(C(=O)N(C)c1ccccc1C)c1cccnc1)C1(c2cccc(C(F)(F)F)c2)CC1` (configuration not stated): the CC50 is over 15 µM. Still for that read-out and setting: the value for `Cc1ccccc1N(C)C(=O)C(c1cccnc1)N(Cc1cccc(C(F)(F)F)c1)C1CC1` (configuration not stated) was over 20 µM; that for `Cc1ccccc1N(C)C(=O)C(c1cccnc1)N(Cc1cc(C(F)(F)F)ccc1F)C1CC1` (configuration not stated) was over 30 µM; that for `CCCN(C(c1cncnc1)c1nnnn1-c1ccccc1C)C1(c2cccc(C(F)(F)F)c2)CC1` (configuration not stated) was 13 µM.

In the case of `O=C(C(c1cccnc1)N(Cc1cccc(C(F)(F)F)c1)C1CC1)N1CCCCC1` (configuration not stated), the CC50 is over 20 µM.

The next assay relates to Plasmodium falciparum.
Assay: not given
The class given is functional, organism-based. Conditions: W2.
Consider `NCCCCNc1ncnc2c1cnn2-c1ccc(F)cc1`, for which half-maximal inhibition (IC50) required 21.6 µM.

`O=S(=O)(NCCCCNc1ncnc2c1cnn2-c1ccc(Cl)cc1)c1ccc(F)cc1` yielded a concentration for half-maximal inhibition (IC50) of 43.4 µM. Molecule `Cc1ccc(S(=O)(=O)NCCCCNc2ncnc3c2cnn3-c2ccc(F)cc2)cc1` displayed an IC50 of 5.13 µM.

In turn, `Cc1ccc(-n2ncc3c(NCCCCNS(=O)(=O)c4ccc(C)cc4)ncnc32)cc1` registered an IC50 of 12.2 µM. Turning to `NCCCCNc1ncnc2c1cnn2-c1ccc(Cl)cc1`, the IC50 was found to be 13.2 µM.

The next assay deals with Plasmodium falciparum. Put plainly: microbe, parasite or virus in culture. Conditions: 3D7.
Description: Antiplasmodial activity against Plasmodium falciparum 3D7
On to `O=S(=O)(c1ccc(-n2cc(COc3ccccc3)nn2)cc1)N1CCN(c2ccccn2)CC1`, for which the IC50 was 48.5 µg/mL.

As to `COc1ccc(-n2cc(/C=N/NC(=O)c3ccncc3)nn2)cc1`, the IC50 was found to be 23.2 µM. The same measure, in the same setting: the value for `O=[N+]([O-])c1ccc(OCc2cn(-c3ccc(S(=O)(=O)N4CCN(c5ccccn5)CC4)cc3)nn2)cc1` was over 50 µg/mL; that for `O=S(=O)(c1ccc(-n2cc(COc3ccc(I)cc3)nn2)cc1)N1CCN(c2ccccn2)CC1` was 12 µg/mL. Same read-out and setting: the value for `Cc1n[nH]c2c1C(c1ccc(Cl)cc1)c1c(nc3oc(=O)c(C#N)c(N)c3c1N)O2` (configuration not stated) was 0.84 µg/mL; that for `CC/C=C\C/C=C\C/C=C\C/C=C\C/C=C\C/C=C\CCC(=O)O` [DOCONEXENT] was 0.004 µM; that for `O=S(=O)(c1ccc(-n2cc(COc3ccc(Cl)cc3)nn2)cc1)N1CCN(c2ccccn2)CC1` was over 50 µg/mL. Same read-out and setting: the value for `Cc1n[nH]c2c1C(c1ccc(F)cc1)c1c(nc3oc(=O)c(C#N)c(N)c3c1N)O2` (configuration not stated) was 1.48 µg/mL; that for `O=C(N/N=C/c1cn(-c2ccc(Cl)cc2)nn1)c1ccncc1` was 14.5 µM; that for `O=c1ccc2ccc(OCc3cn(-c4ccc(S(=O)(=O)N5CCN(c6ccccn6)CC5)cc4)nn3)cc2o1` was over 73.5 µg/mL.

`O=C(N/N=C/c1cn(-c2ccccc2)nn1)c1ccncc1` gave an IC50 of 23.1 µM.

In turn, `O=c1cc(OCc2cn(-c3ccc(S(=O)(=O)N4CCN(c5ccccn5)CC4)cc3)nn2)c2ccccc2o1` came in with an IC50 of 73.5 µg/mL. Still for that read-out and setting: the value for `O=S(=O)(c1ccc(-n2cc(COc3ccc(F)cc3)nn2)cc1)N1CCN(c2ccccn2)CC1` was over 50 µg/mL; that for `O=S(=O)(c1ccc(-n2cc(COc3ccc(Br)cc3)nn2)cc1)N1CCN(c2ccccn2)CC1` was 46 µg/mL; that for `Cc1cc(=O)oc2cc(OCc3cn(-c4ccc(S(=O)(=O)N5CCN(c6ccccn6)CC5)cc4)nn3)c(Cl)cc12` was 59.1 µg/mL.

Consider `Cc1cc(=O)oc2cc(OCc3cn(-c4ccc(S(=O)(=O)N5CCN(c6ccccn6)CC5)cc4)nn3)ccc12`, for which the IC50 was over 71.7 µg/mL. On the same count and under the same terms, the value for `COc1ccc(C2c3c(C)n[nH]c3Oc3nc4oc(=O)c(C#N)c(N)c4c(N)c32)cc1OC` (configuration not stated) was 0.96 µg/mL; that for `Cc1cc(C)nc(NS(=O)(=O)c2ccc(-n3cc(COc4ccccc4)nn3)cc2)n1` was over 50 µg/mL; that for `COc1ccc(-n2cc(-c3cncc4ccccc34)nn2)cn1` was 62 µM.

`Cc1n[nH]c2c1C(c1ccc(Br)cc1)c1c(nc3oc(=O)c(C#N)c(N)c3c1N)O2` (configuration not stated): the midpoint of inhibition, the IC50, lay at 1.85 µg/mL. The same measure, in the same setting: the value for `O=C(N/N=C/c1cnn(-c2ccccc2)n1)c1ccncc1` was 20.2 µM; that for `COc1ccccc1C(=O)/C=C/c1ccccn1` was 0.48 µg/mL; that for `COc1ccc2cc3[n+](cc2c1OCc1cn(-c2ccc(S(=O)(=O)N4CCN(c5ccccn5)CC4)cc2)nn1)CCc1cc2c(cc1-3)OCO2.[Cl-]` was 1 µg/mL.

For another assay, the system named is Plasmodium falciparum. The experiment in a line: microbe, parasite or virus in culture. Conditions: 3D7, 48 h.
The molecule `Cc1nn(-c2ccccc2)c(-n2cncn2)c1-c1cc(-c2ccc(F)cc2)nc2nc3ccccc3n12` came in with an IC50 of 0.04 µg/mL (≈ 0.0822 µM). The same measure, in the same setting: the value for `Cc1nn(-c2ccccc2)c(-n2ccnc2)c1-c1cc(-c2ccc(F)cc2)nc2nc3ccccc3n12` was 0.03 µg/mL (≈ 0.0618 µM); that for `COc1cc(-c2cc(-c3cc(Cl)sc3Cl)nc(S)n2)ccc1OCc1ccccc1` was 9.9 µg/mL (≈ 20.8 µM).

`COc1cc(-c2cc(-c3cc(Cl)sc3Cl)nc(N)n2)ccc1OCc1ccccc1` had an IC50 of 6.3 µg/mL (≈ 13.7 µM).

`Cc1nn(-c2ccccc2)c(-n2ccnc2)c1-c1cc(-c2cccs2)nc2nc3ccccc3n12` displayed an IC50 of 1.75 µg/mL (≈ 3.7 µM). Consider `Cc1ccc(-c2cc(-c3c(C)nn(-c4ccccc4)c3-n3ccnc3)n3c(n2)nc2ccccc23)cc1`, for which the IC50 worked out at 1.84 µg/mL (≈ 3.82 µM). As for `Cc1nn(-c2ccccc2)c(-n2ccnc2)c1-c1cc(-c2cc[nH]c2)nc2nc3ccccc3n12`, the IC50 amounted to 0.07 µg/mL (≈ 0.153 µM). The same measure, in the same setting: the value for `Cc1nn(-c2ccccc2)c(-n2cncn2)c1-c1cc(-c2cc[nH]c2)nc2nc3ccccc3n12` was 0.09 µg/mL (≈ 0.197 µM); that for `COc1cc(-c2cc(-c3ccco3)nc(N)n2)ccc1OCc1ccccc1` was 20 µg/mL (≈ 53.6 µM).

`COc1ccc(-c2cc(-c3cc(Cl)sc3Cl)nc(S)n2)cc1OCc1ccccc1` had an IC50 of 4.2 µg/mL (≈ 8.83 µM). Take `COc1ccc(-c2cc(-c3cc(Cl)sc3Cl)nc(N)n2)cc1OCc1ccccc1`: the IC50 is 5.4 µg/mL (≈ 11.8 µM). On the same count and under the same terms, the value for `COc1ccc(-c2cc(-c3ccco3)nc(S)n2)cc1OCc1ccccc1` was 5.1 µg/mL (≈ 13.1 µM); that for `COc1cc(-c2cc(-c3ccco3)nc(S)n2)ccc1OCc1ccccc1` was 12.2 µg/mL (≈ 31.2 µM); that for `COc1ccc(-c2cc(-c3ccco3)nc(N)n2)cc1OCc1ccccc1` was 4.4 µg/mL (≈ 11.8 µM).

For the origin of these results see ChEMBL document CHEMBL6087390, “Pyridine and Pyrimidine hybrids as privileged scaffolds in antimalarial drug discovery: A recent development” (Bioorg Med Chem Lett, 2024).
